Where no end group is shown, it is not given here.
How the values were obtained:
PBMC = assay: T cell activation assay (time course) of IFNα peptides, PBMC from 20 healthy donors and 20 IFN α2b-treated HCV patients; format: cell-based, human; details: 20 healthy donors and 20 HCV patients previously treated with IFN α2b; 6-9 days culture; 3H-thymidine
[1] = Solubility of IFNα peptides; format: physicochemical; details: in the T cell assay of Example 6

Sequence | percentage of donors whose PBMC responded to a peptide (SI greater than about 1.95) (PBMC) [%] | solubility of peptide [1]
FNLFSTKDSSAAWDE (Potential T-cell Epitopes) [peptide 22] | 15 | 
KEDSILAVRKYFQRI (Potential T-cell Epitopes) [compound 38] | 15 | 
SILAVRKYFQRITLY (Potential T-cell Epitopes) [peptide 39] | 25 | 
RRISLFSCLKDRHDF (Potential T-cell Epitopes) [compound 8] | 15 | 
EMIQQIFNLFSTKDS [compound 20, EMIQQIFNLFSTKDS] |  | insoluble
VLHEMIQQIFNLFST [compound 19, VLHEMIQQIFNLFST] |  | insoluble
SLFSCLKDRHDFGFP (Potential T-cell Epitopes) [compound 9] | 15 | 

Source: patent US20050181459A1, “Method for mapping and eliminating T cell epitopes” (priority 2002, published 2005)
